“And” between values parts separate entries of the source, which are not always exact repeats. Equal entries are not always repeated. Where two headings read alike, the source gives them in different places.
Legend:
wild type NIH 3T3 cells = assay: Growth inhibition of wild type NIH 3T3 cells (modified MTT assay, 48 h); assay type: cell-based; conditions: Mus musculus, NIH3T3, mean ± SD of 3-5 experiments
Description: (§1) Inhibition on the Growth of wild type and ras-transformed NIH 3T3 cells
(§2) The compounds of formula (I) were screened on wild type and ras-transformedNIH 3T3 cells for inhibitory activity. Screening was carried out in 96-well plate and the cells, with a density of 1500-2500 cells/well, were cultured in Dulbecco's modified Eagle's medium containing 10% fetal bovine serum at 37° C. under an atmosphere of 7.5% CO2 in air. Growth curve for each cell line was established. The DMSO solution of each compound was incubated with the cell for 48 hours. Procedure of Hansen's MTT assay method was modified for estimating the cell number (Hansen, B. M., Nielson, S. E., Berg, K. J. Immunol. Methods 1989, 119, 203.). The absorption of generated formazan's blue at l570 nm was recorded with ELISA reader. The number of surviving cells was determined from a calibration curve derived by correlating the absorption to the cell number determined from a hemacytometer. At least three experiments were carried out for each compound and IC50 was calculated using sigmoidal regression (Parellada, J., Guinea, M. J. Nat. Prod., 1995, 58, 823.). SI, the selectivity of growth inhibition of each test compound, was defined as the ratio of IC50 against wild type to IC50 against ras-transformed cell lines.

[1] = tested on: ras-transformed NIH 3T3 cells; assay: Growth inhibition of ras-transformed NIH 3T3 cells (modified MTT assay, 48 h); assay type: cell-based; conditions: for Selective toxicity (SI, IC50 wild type/IC50 ras-transformed): IC50 wild type/IC50 ras-transformed cells; for IC50: Mus musculus, NIH3T3; for Relative activity: Ratio of the IC50 of azatyrosine to the IC50 of test compound
Description: as §1, §2

[2] = tested on: NIH 3T3 cells transformed by c-Ha-ras, c-Ki-ras, N-ras, or c-raf oncogene; conditions: cited from earlier work
wild type cells = conditions: cited from earlier work
[3] = tested on: mice harboring a normal c-Ha-ras gene; conditions: 7,12-dimethylbenz[a]anthracene or methylnitrosourea-induced; cited from earlier work
[4] = tested on: revertant clone on nude mice; conditions: some of the revertant clone; cited from earlier work
[5] = tested on: ras-transformed tumor cells; conditions: relatively high concentrations up to; cited from earlier work
[6] = ras-transformed NIH 3T3, 48 hours, mean ± SD of 3-5 experiments, read-out: IC50 ras-transformed

SMILES: CC(C)(C)OC(=O)NC(Cc1ccc(OCc2ccccc2)cn1)C(=O)N1CCSCC1 (stereo not drawn) [Compound 15]
- IC50 (wild type NIH 3T3 cells): 154 ± 3.9 µM
- Selective toxicity (SI, IC50 wild type/IC50 ras-transformed) [1]: 3.1
- IC50 [1, 6]: 50.1 ± 1.04 µM
- Relative activity ([1]; ras-transformed NIH 3T3): 150

SMILES: C=CCNC(=O)C(Cc1ccc(OCc2ccccc2)cn1)NC(=O)OC(C)(C)C (stereo not drawn) [Compound 9]
- IC50 (wild type NIH 3T3 cells): 213 ± 112 µM
- Selective toxicity (SI, IC50 wild type/IC50 ras-transformed) [1]: 2.9
- IC50 [1, 6]: 74.1 ± 15.2 µM
- Relative activity ([1]; ras-transformed NIH 3T3): 102

SMILES: CC(C)(C)OC(=O)NC(Cc1ccc(OCc2ccccc2)cn1)C(N)=O (stereo not drawn) [Compound 7, 3-(5-benzyoxypyridin-2-yl)-2-t-butoxylcarbonylamino NH3]
- IC50 (wild type NIH 3T3 cells): 1716 ± 10.4 µM
- Selective toxicity (SI, IC50 wild type/IC50 ras-transformed) [1]: 23.5
- IC50 [1, 6]: 73.1 ± 41.8 µM
- Relative activity ([1]; ras-transformed NIH 3T3): 103

SMILES: CC(C)(C)OC(=O)NC(Cc1ccc(OCc2ccccc2)cn1)C(=O)N1CCCC1 (stereo not drawn) [Compound 14]
- IC50 (wild type NIH 3T3 cells): 148 ± 12.5 µM
- Selective toxicity (SI, IC50 wild type/IC50 ras-transformed) [1]: 2.5
- IC50 [1, 6]: 59.1 ± 17.8 µM
- Relative activity ([1]; ras-transformed NIH 3T3): 127

SMILES: CCCNC(=O)C(Cc1ccc(OCc2ccccc2)cn1)NC(=O)OC(C)(C)C (stereo not drawn) [Compound 8, propyl 3-(5-benzyoxypyridin-2-yl)-2-t-butoxylcarbonylamino propanamide]
- IC50 (wild type NIH 3T3 cells): 989 ± 707 µM
- Selective toxicity (SI, IC50 wild type/IC50 ras-transformed) [1]: 28.4
- IC50 [1, 6]: 34.1 ± 0.8 µM
- Relative activity ([1]; ras-transformed NIH 3T3): 217

SMILES: C#CCNC(=O)C(Cc1ccc(OCc2ccccc2)cn1)NC(=O)OC(C)(C)C (stereo not drawn) [Compound 10]
- IC50 (wild type NIH 3T3 cells): 410 ± 247 µM
- Selective toxicity (SI, IC50 wild type/IC50 ras-transformed) [1]: 9.0
- IC50 [1, 6]: 45.1 ± 1.65 µM
- Relative activity ([1]; ras-transformed NIH 3T3): 165

SMILES: CC(C)(C)OC(=O)NC(Cc1ccc(OCc2ccccc2)cn1)C(=O)N1CCCCC1 (stereo not drawn) [Compound 13]
- IC50 (wild type NIH 3T3 cells): 74.8 ± 18.7 µM
- Selective toxicity (SI, IC50 wild type/IC50 ras-transformed) [1]: 1.8
- IC50 [1, 6]: 42.1 ± 3.9 µM
- Relative activity ([1]; ras-transformed NIH 3T3): 180

SMILES: CC(C)(C)OC(=O)NC(Cc1ccc(OCc2ccccc2)cn1)C(=O)NC1CCCCC1 (stereo not drawn) [Compound 12, N-cyclohexyl 3-(5-benzyoxypyridin-2-yl)-2-t-butoxylcarbonylaminopropanamide]
- IC50 (wild type NIH 3T3 cells): 2280 ± 1760 µM
- Selective toxicity (SI, IC50 wild type/IC50 ras-transformed) [1]: 138 and 138.5
- Selective toxicity (SI, IC50 wild type/IC50 ras-transformed) ([1]; listed as compound 12): 138.5
- IC50 [1, 6]: 16.1 ± 2.2 µM
- IC50 ([1]; ras-transformed NIH 3T3, read-out: IC50): 16.5 ± 2.2 µM
- Relative activity ([1]; ras-transformed NIH 3T3): 458
- IC50 fold lower than that of azatyrosine ([1]; ras-transformed NIH 3T3): 458 fold

SMILES: N[C@@H](Cc1ccc(O)cn1)C(=O)O [azatyrosine, L-b-(5-hydroxy-2-pyridyl)alanine]
- IC50 (wild type NIH 3T3 cells): 10800 ± 472 µM
- Selective toxicity (SI, IC50 wild type/IC50 ras-transformed) [1]: 1.4
- IC50 [1, 6]: 7550 ± 418 µM
- reversion of surviving transformed cells ([2]; azatyrosine-treated transformed cells that survived): reverted to an apparently normal phenotype
- suppression of growth of transformed NIH 3T3 cells [2]: suppress the growth
- effect on growth of wild type cells (wild type cells): essentially no effect
- inhibition of induced carcinogenesis [3]: inhibits
- tumorigenicity of revertant clones [4]: complete loss of tumorigenicity
- concentration necessary for the activity [5]: 1 to 2 mM

SMILES: CC(C)(C)OC(=O)NC(Cc1ccc(OCc2ccccc2)cn1)C(=O)NC1CC1 (stereo not drawn) [Compound 11]
- IC50 (wild type NIH 3T3 cells): 1930 ± 899 µM
- Selective toxicity (SI, IC50 wild type/IC50 ras-transformed) [1]: 18.4
- IC50 [1, 6]: 104 ± 83.8 µM
- Relative activity ([1]; ras-transformed NIH 3T3): 72

— patent US5869507A, “Azatyrosine analogues” (Wang; Hui-Po, priority 1997, dated 1999)
